Results on 36 molecules are retold here after patent US20050240034A1, “Artemisinin-based peroxide compounds as broad spectrum anti-infective agents” (priority 2002, published 2005).

Read-outs that look alike come from different tables or passages of the source.

Experiment [1] concerns P. falciparum D6 (Sierra Leone). Put plainly: antimalarial parasite LDH (pLDH) assay, D6. The class given is cell-based, Plasmodium falciparum. The conditions noted are these: pLDH assay, Table 5; read-out: P. falciparum (D6 Clone) IC50. As to the method:
(§1) The Thad Cochran National Center for Natural Products Research (University of Mississippi) in vitro antimalarial screen was conducted using an enzyme assay for detection of P. falciparum (see procedure below). This assay is based on the observation that lactate dehydrogenase (LDH) of P. falciparum is distinguishable from host LDH activity. P. falciparum LDH rapidly uses 3-acetyl pyridine nicotinamide adenine dinucleotide (APAD) as a coenzyme in the biotransformation of […].^38 The same process is carried out in human red blood cells at a very slow rate.
(§2) The “Antimalarial parasite LDH assay” is currently being conducted according the following procedure: prepare a suspension of RBC with a 2% parasitemia and 2% hematocrit in malaria complete medium. Dispense 200 μl aliquots of this suspension into each well of a 96 well microtiter plate. Add 10 μl volumes of the drugs to be tested in duplicate to the appropriate wells. Place the plates into humidified chamber and flush the cultures with a gas mixture consisting of 90% N2, 5% O2, and 5% CO2. Transfer the chamber containing the plates to an incubator, and incubate for 48 hours at 37° C. After 48 hours add 100 μl aliquots of the Malstat™ reagent to each well of a new 96-well microtiter plate Resuspend the cultures from the assay plate by mixing each well up and down several times. Remove 20 μl from each well of the resuspend culture and add to the plate containing the Malstat™ reagent. Incubate the plates at room temperature for 30 minutes. After 30 minutes, add to each well 20 μl of the 1:1 mixture of the NBT/PES solution (2 mg/ml and 0.1 mg/ml, respectively). Incubate the plates in the dark for 1 hour. Add 100 μl of 5% acetic acid solution to stop the reaction. The plate is then read at an endpoint of approximately 650 nm. The dose response curves are generated using Microsoft Excel.
(§3) Antimalarial activity of the analogues was determined in vitro on chloroquine sensitive (D)6, Sierra Leone) and resistant (W2, IndoChina) strains of Plasmodium falciparum. The 96 well microplate assay is based on evaluation of the effect of the compounds on the growth of asynchronous cultures of P. falciparum, determined by the assay of parasite lactate dehydrogenase (pLDH) activity.^28 The appropriate dilutions of the compounds were prepared in DMSO or RPMI-1640 medium and added to the cultures of P. falciparum (2% hematocrit, 2% parasitemia) set up in clear flat bottomed 96 well plates. The plates were placed into the humidified chamber and flushed with a gas mixture of 90% N2, 5% CO2 & 5% O2. The cultures were incubated at 37° C. for 48 hours. Growth of the parasite in each well was determined by pLDH assay using Malstat® reagent. The medium and RBC controls were also set-up in each plate. The standard antimalarial agents, chloroquine and artemisinin, were used as the positive controls while DMSO was tested as the negative control.

Experiment [2] relates to P. falciparum W2 (IndoChina). Kind of experiment: antimalarial parasite LDH (pLDH) assay, W2. Type of experiment: cell-based, Plasmodium falciparum. As to conditions: pLDH assay, Table 5; read-out: P. falciparum (W2 Clone) IC50. As to the method:
as §1, §2
as §3, with “plate.” for “plate. The standard antimalarial agents, chloroquine and artemisinin, were used as the positive controls while DMSO was tested as the negative control.”

The subject of experiment [3] is Leishmania donovani promastigotes expressing firefly luciferase. Kind of experiment: antileishmanial luciferase assay on transgenic promastigotes. Type of experiment: cell-based. As to the method: Antileishmanial activity of the compounds was tested on a transgenic cell line of Leishmania donovani promastigotes expressing firefly luciferase.^29a In a 96 well microplate assay, compounds with appropriate dilution were added to the leishmania promastigotes culture (2×10^6 cell/mL). The plates were incubated at 26° C. for 72 hours and growth of leishmania promastigotes was determined by luciferase assay with Steady Glo® reagent (Promega, USA). Pentamidine and Amphotericin B were used as standard antileishmanial agents. The analogues were simultaneously tested for cytotoxicity on VERO cells (monkey kidney fibroblast) by Neutral Red assay.^29b IC50 values for the compounds were computed from the growth inhibition curve.

The test system of experiment [4] is P. berghei N. Put plainly: in vivo Peter's 4-day antimalarial test in mice, P. berghei N. As to the method:
(§4) The parasitemia is determined on the day following the last treatment—day 4 to determine qualitatively the presence and degree of activity at the screening dose.

The test system of experiment [5] is P. yoelli ssp. NS. Kind of experiment: in vivo 4-day antimalarial test in mice, P. yoelli ssp. NS. As to the method: as §4
Setting [6] is: Table 1 (artemisinin analogues), NA = not active up to 125 μg/ml, read-out: Antileishmanial activity IC50.
The mark [7] stands for this setting: Table 3 (continues Table 1), read-out: Antileishmanial activity IC50.
The mark [8] stands for this setting: Table 4, NA = not active up to 125 μg/ml, read-out: IC50.
The mark [9] stands for this setting: mice, oral, 4-day test, unit not given.
Setting [10] is: mice, subcutaneous, 4-day test, unit not given.

As usually defined, the IC50 is the point on the concentration scale where inhibition reaches its midpoint. Consider `CC1CCC2C(CCCc3ccc(O)cc3)C(=O)OC3OC4(C)CCC1C32OO4` (single isomer, unassigned; (+)) [Compound 33], for which the half-maximal inhibitory concentration (IC50) came to 0.0079 µM in experiment [1], 0.0047 µM in experiment [2] and 44.7 µM in experiment [3] (setting [6]). Consider `C[C@@H]1[C@H](O)[C@@H](C)/C=C/C=C/C=C/C=C/C=C/C=C/C=C/[C@H](O[C@@H]2O[C@H](C)[C@@H](O)[C@H](N)[C@@H]2O)C[C@@H]2O[C@](O)(C[C@@H](O)C[C@@H](O)[C@H](O)CC[C@@H](O)C[C@@H](O)CC(=O)O[C@H]1C)C[C@H](O)[C@H]2C(=O)O` [Amphotericin B, reference compound], for which the IC50 in experiment [3] (setting [7]) was found to be 0.01 µM.

With `C[C@@H]1CC[C@H]2[C@@H](C)C(=O)O[C@@H]3O[C@@]4(C)CC[C@@H]1[C@]32OO4` [Artemisinin, artemisinin], the IC50 in experiment [1] was 0.017 µM; in experiment [3] (setting [6]), 124 µM. `CC1CCC2C(CCCc3ccccc3)C(=O)OC3OC4(C)CCC1C32OO4` (stereo not shown) [Compound 26]: the IC50 in experiment [1] is 0.0047 µM; in experiment [2], 0.0013 µM; in experiment [3] (setting [6]) it was 11.6 µM. For `CC1CCC2C(CCCc3ccccc3)C(=O)OC3OC4(C)CCC1C32OO4` (stereo not shown) [Compound 27] the same measures were 0.0104 µM, 0.0034 µM and 45.3 µM. Take `CC1CCC2C(CCCc3ccc(N(C)C)cc3)COC3OC4(C)CCC1C32OO4` (stereo not shown) [Compound 43a]: the results for the half-maximal inhibitory concentration (IC50) in experiment [1], in experiment [2] and in experiment [3] (setting [7]) were 0.0165 µM, 0.0143 µM and 36 µM, respectively. On to `CC1CCC2C(CCC#N)C(=O)OC3OC4(C)CCC1C32OO4` (stereo not shown) [Compound 52], for which the IC50 worked out at 0.0149 µM in experiment [1], 0.0149 µM in experiment [2] and 38.9 µM in experiment [3] (setting [6]). On to `CC1CCC2CC(=O)OC3OC4(C)CCC1C23OO4` (stereo not shown) [Compound 60], for which the IC50 in experiment [3] (setting [6]) worked out at 242 µM.

As for `CC1CCC2C(C)(C)C(=O)OC3OC4(C)CCC1C32OO4` (stereo not shown) [Compound 62], the IC50 in experiment [3] (setting [6]) was 101 µM. Same read-out and setting: the same measure for `CCCC1C(=O)OC2OC3(C)CCC4C(C)CCC1C24OO3` (stereo not shown) [Compound 63]: 16.8 µM. For the molecule `C=CCC1C(=O)OC2OC3(C)CCC4C(C)CCC1C24OO3` (stereo not shown) [Compound 64], the IC50 in experiment [3] (setting [6]) came to 17.8 µM. Take `CCCCC1C(=O)OC2OC3(C)CCC4C(C)CCC1C24OO3` (stereo not shown) [Compound 65]: in experiment [3] (setting [6]), the IC50 stood at 12.3 µM. Same read-out and setting: the same measure for `CC1CCC2C(CCCCc3ccccc3)C(=O)OC3OC4(C)CCC1C32OO4` (stereo not shown) [Compound 70]: 7.5 µM.

Turning to `CC1CCC2C(CCCc3cccc(F)c3)C(=O)OC3OC4(C)CCC1C32OO4` (stereo not shown) [Compound 71], in experiment [3] (setting [6]), the IC50 was 3.7 µM.

Regarding `CC1CCC2C(CCCc3ccc(Cl)cc3)C(=O)OC3OC4(C)CCC1C32OO4` (stereo not shown) [Compound 72], in experiment [3] (setting [6]), the IC50 was 11.9 µM. On to `COc1ccc(CCCC2C(=O)OC3OC4(C)CCC5C(C)CCC2C35OO4)cc1` (stereo not shown) [Compound 73], for which the IC50 in experiment [3] (setting [6]) was found to be 12 µM. Still for that read-out and setting: the same measure for `CC1CCC2C(CCCc3cc(F)cc(F)c3)C(=O)OC3OC4(C)CCC1C32OO4` (stereo not shown) [Compound 74]: 49.7 µM. As to `CC1CCC2C(C)COC3OC4(C)CCC1C32OO4` (stereo not shown) [Compound 94], the IC50 in experiment [3] (setting [7]) stood at 46.6 µM. On the same count and under the same terms, the same measure for `CC1CCC2C(CCCc3ccc(Cl)cc3)COC3OC4(C)CCC1C32OO4` (stereo not shown) [Compound 95]: 4.9 µM.

In the case of `CC1CCC2C(CCCc3cccc(Cl)c3)COC3OC4(C)CCC1C32OO4` (stereo not shown) [Compound 96], in experiment [3] (setting [7]), the IC50 was determined as 3.7 µM.

On to `CC1CCC2C(CCCc3ccc(Cl)c(Cl)c3)COC3OC4(C)CCC1C32OO4` (stereo not shown) [Compound 97], for which the IC50 in experiment [3] (setting [7]) stood at 2.3 µM. The same measure, in the same setting: the same measure for `CC1CCC2C(CCCc3ccc(C(F)(F)F)cc3)COC3OC4(C)CCC1C32OO4` (stereo not shown) [Compound 98]: 1.8 µM; for `COc1ccc(CCCC2COC3OC4(C)CCC5C(C)CCC2C35OO4)cc1` (stereo not shown) [Compound 99]: 17.4 µM; for `CC1CCC2C(CCCc3cc(F)cc(F)c3)COC3OC4(C)CCC1C32OO4` (stereo not shown) [Compound 100]: 11 µM. Same read-out and setting: the same measure for `CC1CCC2C(CCCc3cc(C(F)(F)F)cc(C(F)(F)F)c3)COC3OC4(C)CCC1C32OO4` (stereo not shown) [Compound 101]: 0.3 µM. `CCCCN1C(=O)CC2CCC(C)C3CCC4(C)OOC23C1O4` (stereo not shown) [Compound 105]: in experiment [3] (setting [8]), the IC50 came to 44.5 µM.

With `CC1CCC2CC(=O)N(CC(=O)OC(C)(C)C)C3OC4(C)CCC1C23OO4` (stereo not shown) [Compound 107], the IC50 in experiment [3] (setting [8]) was determined as 27.5 µM. The same measure, in the same setting: the result for `CC1CCC2CC(=O)N(Cc3ccccc3)C3OC4(C)CCC1C23OO4` (stereo not shown) [Compound 108] reads 56 µM. As for `CC1CCC2CC(=O)N(Cc3ccc(Cl)cc3)C3OC4(C)CCC1C23OO4` (stereo not shown) [Compound 109], in experiment [3] (setting [8]), the IC50 was 25.5 µM. Take `CC1CCC2CC(=O)N(CCc3ccccc3)C3OC4(C)CCC1C23OO4` (stereo not shown) [Compound 110]: the IC50 in experiment [3] (setting [8]) was 32.3 µM. Turning to `C[C@@H]1CC[C@@H]([C@@H](C)CO)[C@@]23C=C[C@@](C)(CC[C@@H]12)OO3` [Compound 112], the IC50 in experiment [3] (Leishmania donovani) amounted to 131 µM. Regarding `N=C(N)c1ccc(OCCCCCOc2ccc(C(=N)N)cc2)cc1` [Pentamidine, reference compound], the IC50 in experiment [3] (Leishmania donovani, read-out: Antileishmanial activity IC50) was 1.35 µM. Take `C[C@H]1[C@H](OC(=O)CCC(=O)[O-])O[C@@H]2O[C@@]3(C)CC[C@H]4[C@H](C)CC[C@@H]1[C@@]24OO3.[Na+]` [Sodium artesunate, sodium artesunate, reference compound]: in experiment [4] (setting [9]), the “P. berghei N P.O. ED50” value amounted to 2.4 and the “P. berghei N P.O. ED90” value was determined as 13.0. Moreover, in experiment [4] (setting [10]), the “P. berghei N S.C. ED50” value worked out at 1.5 and the “P. berghei N S.C. ED90” value is recorded as 6.3. Besides, in experiment [4] (strain N, route PO), the “% Suppression” value turned out to be 77.2%, the ED50 is reported as <10 mg/kg × 4 and the ED90 is given as >10 mg/kg × 4. For the same molecule, in experiment [5] (strain NS, route PO), the “% Suppression” value amounted to 56.5%, the ED50 is reported as <10 mg/kg × 4 and the ED90 is on record as >10 mg/kg × 4. In experiment [5] (subcutaneous, unit inferred), this molecule had a P. yoelli ssp. NS (S.C.) ED50 of 5.3 mg/kg and a P. yoelli ssp. NS (S.C.) ED90 of 23.3 mg/kg. Take “(+)-Octabydro-3,6α-dimethyl-3,12-epoxy-9β-(3′-(m-fluorophenyl)propyl)-12H-pyrano[4,3j]-1,2-benzodioxepin-10(3H)-one [Compound 30]”: the IC50 turned out to be 0.0301 µM in experiment [1], 0.02 µM in experiment [2] and 53.8 µM in experiment [3] (setting [6]). For the molecule “(+)-Octahydro3,6α-dimethyl-3,12-epoxy-9β-(3′-(3,5-difluorophenyl)propyl)-12H-pyrano[4,3j)-1,2-benzodioxepin-10(3H)-one [Compound 34]”, the IC50 in experiment [1] is 0.0188 µM; in experiment [2], 0.016 µM; in experiment [3] (setting [6]), 14.4 µM. On to “(+)-Octahydro-3,6α-dimethyl-3,12-epoxy-9β-(3′-(trifluoromethyl)propyl)-12H-pyrano[4,3j]-1,2-benzodioxepin-10(3H)-one [Compound 28]”, for which the IC50 in experiment [1] was 0.0439 µM; in experiment [2] it was 0.0508 µM; in experiment [3] (setting [6]) it was 1.4 µM.
